This is an account of results in PMC9057082 (RSC Advances, 2020).

The nature of the test: Total antioxidant capacity. The test is classed as biochemical. To be noted: residual hydrogen peroxide measured at 505 nm; mean ± standard deviation.

SMILES strings stand for the structures.

Consider `O=C1O[C@H]([C@@H](O)CO)C(O)=C1O` [Ascorbic acid], for which the “Total anti-oxidant activity IC50” value came to 174.8 ± 12.3 µg/mL.
